{"source": "paper PMC5218480", "about": "(PLoS ONE, 2017)", "test_system": "MV-4-11 cells", "test": "Gene expression microarray analysis (Affymetrix PrimeView) and GSEA", "format": "cell-based, human", "design": "RFU PODN (11730768_x_at) / Fold change /veh PODN (11730768_x_at) / RFU LINC00158 (11744669_a_at) / Fold change /veh LINC00158 (11744669_a_at) / RFU DUSP10 (11751237_a_at) / Fold change /veh DUSP10 (11751237_a_at) / RFU ID3 (11757404_x_at) / Fold change /veh ID3 (11757404_x_at) / RFU PLEKHG5 (11737974_s_at) / Fold change /veh PLEKHG5 (11737974_s_at) / RFU LRRC4B (11730491_at) / Fold change /veh LRRC4B (11730491_at) / RFU GIMAP4 (11747438_a_at) / Fold change /veh GIMAP4 (11747438_a_at) / RFU KRT8 (11758183_x_at) / Fold change /veh KRT8 (11758183_x_at) / RFU CNN1 (11734310_a_at) / Fold change /veh CNN1 (11734310_a_at) / RFU VPS37D (11726825_at) / Fold change /veh VPS37D (11726825_at) / RFU C10orf10 (11716522_x_at) / Fold change /veh C10orf10 (11716522_x_at) / RFU KIR2DL2 /// KIR2DL4 /// KIR2DL5A /// KIR2DL5B /// KIR2DS1 /// KIR2DS2 /// KIR2DS3 /// KIR2DS4 /// KIR3DL3 /// KIR3DL3 /// KIR3DS1 (11738374_at) / Fold change /veh KIR2DL2 /// KIR2DL4 /// KIR2DL5A /// KIR2DL5B /// KIR2DS1 /// KIR2DS2 /// KIR2DS3 /// KIR2DS4 /// KIR3DL3 /// KIR3DL3 /// KIR3DS1 (11738374_at) / RFU C1QL1 (11718748_at) / Fold change /veh C1QL1 (11718748_at) / RFU TMPRSS4 (11747572_a_at) / Fold change /veh TMPRSS4 (11747572_a_at) / RFU HAMP (11756126_x_at) / Fold change /veh HAMP (11756126_x_at) / RFU RNFT2 (11725882_a_at) / Fold change /veh RNFT2 (11725882_a_at) / RFU NR4A2 (11747474_a_at) / Fold change /veh NR4A2 (11747474_a_at) / RFU ABCC12 (11746883_a_at) / Fold change /veh ABCC12 (11746883_a_at) / RFU TMEM136 (11760407_x_at) / Fold change /veh TMEM136 (11760407_x_at) / RFU CLDN22 /// WWC2 (11732394_at) / Fold change /veh CLDN22 /// WWC2 (11732394_at) / RFU HLA-DPB1 (11760878_x_at) / Fold change /veh HLA-DPB1 (11760878_x_at) / RFU SPINT1 (11716480_a_at) / Fold change /veh SPINT1 (11716480_a_at) / RFU GAP43 (11754022_s_at) / Fold change /veh GAP43 (11754022_s_at) / RFU A4GNT (11735810_at) / Fold change /veh A4GNT (11735810_at) / RFU PRB3 (11715151_x_at) / Fold change /veh PRB3 (11715151_x_at) / RFU TUBB4B (11761932_at) / Fold change /veh TUBB4B (11761932_at) / RFU CAPN14 (11732068_a_at) / Fold change /veh CAPN14 (11732068_a_at) / RFU TMCC2 (11721928_a_at) / Fold change /veh TMCC2 (11721928_a_at) / RFU IRGQ (11745062_a_at) / Fold change /veh IRGQ (11745062_a_at) / RFU FAM174B (11720279_a_at) / Fold change /veh FAM174B (11720279_a_at) / RFU TMPRSS4 (11748680_a_at) / Fold change /veh TMPRSS4 (11748680_a_at) / RFU FAM212B (11763350_a_at) / Fold change /veh FAM212B (11763350_a_at) / RFU PLEKHG5 (11743358_a_at) / Fold change /veh PLEKHG5 (11743358_a_at) / RFU ZSCAN30 (11745921_a_at) / Fold change /veh ZSCAN30 (11745921_a_at) / RFU CMKLR1 (11741424_a_at) / Fold change /veh CMKLR1 (11741424_a_at) / RFU LOC101060620 /// MAPK8IP1 (11723275_at) / Fold change /veh LOC101060620 /// MAPK8IP1 (11723275_at) / RFU SPTSSB (11747773_x_at) / Fold change /veh SPTSSB (11747773_x_at) / RFU PRSS12 (11739890_at) / Fold change /veh PRSS12 (11739890_at) / RFU BIN1 (11741810_x_at) / Fold change /veh BIN1 (11741810_x_at) / RFU WNT11 (11732464_a_at) / Fold change /veh WNT11 (11732464_a_at) / RFU C10orf10 (11716521_a_at) / Fold change /veh C10orf10 (11716521_a_at) / RFU C5orf56 (11738089_at) / Fold change /veh C5orf56 (11738089_at) / RFU CYB561 (11721691_x_at) / Fold change /veh CYB561 (11721691_x_at) / RFU ANKRD19P (11752326_a_at) / Fold change /veh ANKRD19P (11752326_a_at) / RFU OR2T12 /// OR2T33 /// OR2T8 (11738714_s_at) / Fold change /veh OR2T12 /// OR2T33 /// OR2T8 (11738714_s_at) / RFU VCAN (11748164_a_at) / Fold change /veh VCAN (11748164_a_at) / RFU JSRP1 (11732532_at) / Fold change /veh JSRP1 (11732532_at) / RFU KRTAP10-11 (11738290_x_at) / Fold change /veh KRTAP10-11 (11738290_x_at) / RFU MYO3A (11730013_a_at) / Fold change /veh MYO3A (11730013_a_at) / RFU EBF3 (11725865_a_at) / Fold change /veh EBF3 (11725865_a_at) / RFU CAMK2N1 (11719241_x_at) / Fold change /veh CAMK2N1 (11719241_x_at) / RFU C5orf56 (11738088_a_at) / Fold change /veh C5orf56 (11738088_a_at) / RFU OLFML3 (11715873_a_at) / Fold change /veh OLFML3 (11715873_a_at) / RFU LOC100653217 /// NTM (11731650_a_at) / Fold change /veh LOC100653217 /// NTM (11731650_a_at) / RFU MAPK11 (11762145_a_at) / Fold change /veh MAPK11 (11762145_a_at) / RFU FIZ1 (11724087_x_at) / Fold change /veh FIZ1 (11724087_x_at) / RFU OASL (11726364_x_at) / Fold change /veh OASL (11726364_x_at) / RFU SOX15 (11748057_x_at) / Fold change /veh SOX15 (11748057_x_at) / RFU CD79A (11719716_a_at) / Fold change /veh CD79A (11719716_a_at) / RFU HIST1H1D (11736915_at) / Fold change /veh HIST1H1D (11736915_at) / RFU CASKIN2 (11723855_a_at) / Fold change /veh CASKIN2 (11723855_a_at) / RFU LOC730098 (11760151_x_at) / Fold change /veh LOC730098 (11760151_x_at) / RFU OR4N2 (11742367_at) / Fold change /veh OR4N2 (11742367_at) / RFU PRRT2 (11749266_a_at) / Fold change /veh PRRT2 (11749266_a_at) / RFU SNX32 (11753110_a_at) / Fold change /veh SNX32 (11753110_a_at) / RFU CDHR5 (11726645_a_at) / Fold change /veh CDHR5 (11726645_a_at) / RFU RCAN1 (11760418_a_at) / Fold change /veh RCAN1 (11760418_a_at) / RFU FAM167A (11723789_a_at) / Fold change /veh FAM167A (11723789_a_at) / RFU FAM26E (11764081_at) / Fold change /veh FAM26E (11764081_at) / RFU ISYNA1 (11749810_s_at) / Fold change /veh ISYNA1 (11749810_s_at) / RFU ACY1 (11761880_at) / Fold change /veh ACY1 (11761880_at) / RFU 11764098_at / Fold change /veh 11764098_at / RFU SAMD14 (11745864_x_at) / Fold change /veh SAMD14 (11745864_x_at) / RFU NPB (11741838_a_at) / Fold change /veh NPB (11741838_a_at) / RFU TMPRSS6 (11731388_a_at) / Fold change /veh TMPRSS6 (11731388_a_at) / RFU KRTAP10-2 (11738614_at) / Fold change /veh KRTAP10-2 (11738614_at) / RFU ARHGAP8 /// PRR5-ARHGAP8 (11727945_x_at) / Fold change /veh ARHGAP8 /// PRR5-ARHGAP8 (11727945_x_at) / RFU KRTAP5-7 /// NADSYN1 (11734609_at) / Fold change /veh KRTAP5-7 /// NADSYN1 (11734609_at) / RFU RASL12 (11751679_a_at) / Fold change /veh RASL12 (11751679_a_at) / RFU CDKN2B (11736163_a_at) / Fold change /veh CDKN2B (11736163_a_at) / RFU PRF1 (11729649_at) / Fold change /veh PRF1 (11729649_at) / RFU, ZNF638 /// ZNF638-IT1 / Fold change vs veh, ZNF638 /// ZNF638-IT1 / RFU, PANK3 / Fold change vs veh, PANK3 / RFU, SH3YL1 / Fold change vs veh, SH3YL1 / RFU, ZEB2 / Fold change vs veh, ZEB2 / RFU, NRIP1 / Fold change vs veh, NRIP1 / RFU, PTTG1IP / Fold change vs veh, PTTG1IP / RFU, CAPN2 / Fold change vs veh, CAPN2 / RFU, MED14 / Fold change vs veh, MED14 / RFU, SNORA58 / Fold change vs veh, SNORA58 / RFU, C1orf63 / Fold change vs veh, C1orf63 / RFU, LRRFIP1 / Fold change vs veh, LRRFIP1 / RFU, NDUFAF7 / Fold change vs veh, NDUFAF7 / RFU, SLC12A2 / Fold change vs veh, SLC12A2 / RFU, IBTK / Fold change vs veh, IBTK / RFU, ESF1 / Fold change vs veh, ESF1 / Fold change vs veh, TMEM50B / RFU, TAOK1 / Fold change vs veh, TAOK1 / RFU, ACBD3 / Fold change vs veh, ACBD3 / RFU, TMA16 / Fold change vs veh, TMA16 / RFU, RWDD3 / Fold change vs veh, RWDD3 / RFU, BCAT1 / Fold change vs veh, BCAT1 / RFU, EDEM3 / Fold change vs veh, EDEM3 / RFU, TMEM33 / Fold change vs veh, TMEM33 / RFU, WDR75 / Fold change vs veh, WDR75 / RFU, AHCTF1 / Fold change vs veh, AHCTF1 / RFU, TFRC / Fold change vs veh, TFRC / RFU, ZDHHC17 / Fold change vs veh, ZDHHC17 / RFU, NOM1 / Fold change vs veh, NOM1 / RFU, ARL8B / Fold change vs veh, ARL8B / RFU, ZBTB11 / Fold change vs veh, ZBTB11 / RFU, TAMM41 / Fold change vs veh, TAMM41 / RFU, KIAA1704 /// LOC100996395 / Fold change vs veh, KIAA1704 /// LOC100996395 / RFU, ING1 / Fold change vs veh, ING1 / RFU, TRMT61B / Fold change vs veh, TRMT61B / RFU, FUBP3 / Fold change vs veh, FUBP3 / RFU, TP53 / Fold change vs veh, TP53 / RFU, TNKS2 / Fold change vs veh, TNKS2 / RFU, ZFP14 / Fold change vs veh, ZFP14 / RFU, ACTR2 / Fold change vs veh, ACTR2 / RFU, PPP3R1 / Fold change vs veh, PPP3R1 / RFU, PIK3R1 / Fold change vs veh, PIK3R1 / RFU, HNRNPA1 / Fold change vs veh, HNRNPA1 / RFU, RNF170 / Fold change vs veh, RNF170 / RFU, ZNF28 / Fold change vs veh, ZNF28 / RFU, RNGTT / Fold change vs veh, RNGTT / RFU, OGT / Fold change vs veh, OGT / RFU, BRD1 / Fold change vs veh, BRD1 / RFU, MARS / Fold change vs veh, MARS / RFU, ZNF655 / Fold change vs veh, ZNF655 / RFU, FAHD1 / Fold change vs veh, FAHD1 / RFU, BDP1 / Fold change vs veh, BDP1 / RFU, LRRCC1 / Fold change vs veh, LRRCC1 / RFU, ARID1A / Fold change vs veh, ARID1A / RFU, ZNF146 / Fold change vs veh, ZNF146 / RFU, ZNF330 / Fold change vs veh, ZNF330 / RFU, GPN3 / Fold change vs veh, GPN3 / RFU, C9orf123 / Fold change vs veh, C9orf123 / RFU, N4BP2L2 / Fold change vs veh, N4BP2L2 / RFU, ARFIP1 / Fold change vs veh, ARFIP1 / RFU, FAM179B / Fold change vs veh, FAM179B / RFU, BCL10 / Fold change vs veh, BCL10 / RFU, UHRF1BP1L / Fold change vs veh, UHRF1BP1L / RFU, BET1 / Fold change vs veh, BET1 / RFU, CNOT2 / Fold change vs veh, CNOT2 / RFU, ZNF268 / Fold change vs veh, ZNF268 / Fold change vs veh, ZNF507 / RFU, DGCR2 / Fold change vs veh, DGCR2 / RFU, WDSUB1 / Fold change vs veh, WDSUB1 / Fold change vs veh, HSP90B1 /// MIR3652 / RFU, ADSS / Fold change vs veh, ADSS / RFU, GK / Fold change vs veh, GK / RFU, ZNF148 / Fold change vs veh, ZNF148 / RFU, TAF9 / Fold change vs veh, TAF9 / RFU, SLC1A5 / Fold change vs veh, SLC1A5 / RFU, SLMO2 / Fold change vs veh, SLMO2 / RFU, ABCC4 / Fold change vs veh, ABCC4 / RFU, LOC101060439 /// RAP1B / Fold change vs veh, LOC101060439 /// RAP1B / RFU, RFX7 / Fold change vs veh, RFX7 / RFU, GTPBP10 / Fold change vs veh, GTPBP10 / RFU, CNEP1R1 / Fold change vs veh, CNEP1R1 / RFU, BIVM-ERCC5 /// ERCC5 / Fold change vs veh, BIVM-ERCC5 /// ERCC5 / RFU, ILF3 / Fold change vs veh, ILF3 / RFU 11762660_at / Fold change /veh 11762660_at / RFU VCAN (11757783_s_at) / Fold change /veh VCAN (11757783_s_at) / RFU DDX43 (11728927_at) / Fold change /veh DDX43 (11728927_at) / RFU KRT8 (11758188_x_at) / Fold change /veh KRT8 (11758188_x_at) / RFU NKD1 (11759106_at) / Fold change /veh NKD1 (11759106_at) / RFU SRD5A1 (11742802_a_at) / Fold change /veh SRD5A1 (11742802_a_at) / RFU TPSAB1 /// TPSB2 (11721975_s_at) / Fold change /veh TPSAB1 /// TPSB2 (11721975_s_at) / RFU GSTM3 (11746129_a_at) / Fold change /veh GSTM3 (11746129_a_at) / RFU IL23R (11737362_x_at) / Fold change /veh IL23R (11737362_x_at) / RFU TMEM51 (11727254_a_at) / Fold change /veh TMEM51 (11727254_a_at) / RFU PIWIL2 (11732686_x_at) / Fold change /veh PIWIL2 (11732686_x_at) / RFU ORM1 (11744905_x_at) / Fold change /veh ORM1 (11744905_x_at) / RFU CCDC152 (11743942_at) / Fold change /veh CCDC152 (11743942_at) / RFU ECM1 (11717891_a_at) / Fold change /veh ECM1 (11717891_a_at) / RFU IL23R (11748794_a_at) / Fold change /veh IL23R (11748794_a_at) / RFU TNFAIP8L3 (11732012_x_at) / Fold change /veh TNFAIP8L3 (11732012_x_at) / RFU MBOAT4 (11741988_at) / Fold change /veh MBOAT4 (11741988_at) / RFU 11764193_at / Fold change /veh 11764193_at / RFU TMEM53 (11763286_at) / Fold change /veh TMEM53 (11763286_at) / RFU MAGEB2 (11727129_at) / Fold change /veh MAGEB2 (11727129_at) / RFU TMEM200A (11744735_a_at) / Fold change /veh TMEM200A (11744735_a_at) / RFU CCDC152 (11751479_a_at) / Fold change /veh CCDC152 (11751479_a_at) / RFU FAM211A (11726209_a_at) / Fold change /veh FAM211A (11726209_a_at) / RFU RGS16 (11746705_a_at) / Fold change /veh RGS16 (11746705_a_at) / RFU VCAN (11755009_s_at) / Fold change /veh VCAN (11755009_s_at) / RFU RHOB (11743442_s_at) / Fold change /veh RHOB (11743442_s_at) / RFU RGS16 (11720943_a_at) / Fold change /veh RGS16 (11720943_a_at) / RFU RGS16 (11720944_at) / Fold change /veh RGS16 (11720944_at) / RFU, VPS4B / Fold change vs veh, VPS4B / RFU, CREB1 / Fold change vs veh, CREB1 / RFU, DNAJC13 / Fold change vs veh, DNAJC13 / RFU, GNAQ / Fold change vs veh, GNAQ / RFU, CDK5R1 / Fold change vs veh, CDK5R1 / RFU, ZRANB3 / Fold change vs veh, ZRANB3 / RFU, CUL4A / Fold change vs veh, CUL4A / RFU, CCNY / Fold change vs veh, CCNY / RFU, UFL1 / Fold change vs veh, UFL1 / RFU, COG3 / Fold change vs veh, COG3 / RFU, DIAPH2 / Fold change vs veh, DIAPH2 / RFU, SKA2 / Fold change vs veh, SKA2 / RFU, AFF3 / Fold change vs veh, AFF3 / RFU, LMF1 / Fold change vs veh, LMF1 / RFU, IPO11 / Fold change vs veh, IPO11 / RFU, DFFB / Fold change vs veh, DFFB / RFU, FOXP1 / Fold change vs veh, FOXP1 / RFU, CARD8 / Fold change vs veh, CARD8 / RFU, STRN3 / Fold change vs veh, STRN3 / RFU, ADK / Fold change vs veh, ADK / RFU, RASSF2 / Fold change vs veh, RASSF2 / RFU, WIPF1 / Fold change vs veh, WIPF1 / RFU, LARP1B / Fold change vs veh, LARP1B / RFU, RASA1 / Fold change vs veh, RASA1 / RFU, RB1 / Fold change vs veh, RB1 / RFU, PPFIA1 / Fold change vs veh, PPFIA1 / RFU, MAT2A / Fold change vs veh, MAT2A / RFU, CCT5 / Fold change vs veh, CCT5 / RFU, WDR92 / Fold change vs veh, WDR92 / RFU, CUX1 / Fold change vs veh, CUX1 / RFU, TTC7A / Fold change vs veh, TTC7A / RFU, TMEM135 / Fold change vs veh, TMEM135 / RFU, DEPTOR / Fold change vs veh, DEPTOR / RFU, CPM / Fold change vs veh, CPM / RFU, DNAJB6 / Fold change vs veh, DNAJB6 / RFU, CACNA2D3 / Fold change vs veh, CACNA2D3 / RFU, DTX4 / Fold change vs veh, DTX4 / RFU, TFCP2 / Fold change vs veh, TFCP2 / RFU, GMCL1 /// GMCL1P1 / Fold change vs veh, GMCL1 /// GMCL1P1 / RFU, AEBP2 / Fold change vs veh, AEBP2 / RFU, SNHG1 /// SNORD22 /// SNORD25 /// SNORD26 /// SNORD27 /// SNORD28 /// SNORD29 /// SNORD31 / Fold change vs veh, SNHG1 /// SNORD22 /// SNORD25 /// SNORD26 /// SNORD27 /// SNORD28 /// SNORD29 /// SNORD31 / Fold change (Aza/veh), C12orf56 (ProbeSet 11735607_a_at) / Fold change (ACY-1035/veh), C12orf56 (ProbeSet 11735607_a_at) / Fold change (Aza/veh), FGFR1OP (ProbeSet 11751329_s_at) / Fold change (ACY-1035/veh), FGFR1OP (ProbeSet 11751329_s_at) / Fold change (Aza/veh), VPS36 (ProbeSet 11739960_a_at) / Fold change (ACY-1035/veh), VPS36 (ProbeSet 11739960_a_at) / RFU SYPL1 (11715823_x_at) / Fold change /veh SYPL1 (11715823_x_at) / RFU IGFBP7 (11715501_s_at) / Fold change /veh IGFBP7 (11715501_s_at) / RFU REEP3 (11722064_at) / Fold change /veh REEP3 (11722064_at) / RFU IGLL1 (11728026_x_at) / Fold change /veh IGLL1 (11728026_x_at): dose or concentration left out as unconfirmed", "details": "ProbeSet 11723475_a_at; LIST B", "data": [{"smiles": "Nc1ncn([C@@H]2O[C@H](CO)[C@@H](O)[C@H]2O)c(=O)n1", "note": "[azacitidine]", "values": [{"measurement": "RFU, TRMT61B", "value": 139.59, "unit": "RFU"}]}]}
